Measured values taken from US8993552B2, “Compositions and methods for treatment of leukemia” (The Regents of The University of Michigan, priority 2009, dated 2015).
Entries after “also recorded” stand apart in the source; their conditions may differ. Like-named read-outs stand apart in the source and are kept apart here. Values belong to the compound of their own block, whether it stands above or below them.

Key:
menin-MLL interaction [1] = biological target: T1, menin-MLL interaction (Homo sapiens (Human), UniProt O00255); conditions: 50 μM and 25 μM compound, vs DMSO control
[2] = test system: mouse bone marrow transduced with E2A-HLF; assay: MTT viability assay, transduced mouse bone marrow (negative control); format: cell-based
THP-1 leukemia cells = assay: Differentiation of THP-1 cells, CD11b by flow cytometry; format: cell-based, human
Source text: Thienopyrimidine and benzodiazepine compounds induce differentiation of the MLL leukemia cells.

[3] = test system: human leukemia cell lines with MLL translocations (MV4;11, KOPN-8, THP-1, MonoMac6); assay: MTT viability assay in MLL leukemia cell lines; format: cell-based; conditions: in words
[4] = test system: mouse bone marrow transduced with MLL-ENL; assay: MTT viability assay, transduced mouse bone marrow; format: cell-based
Source text: (§1) Effects of thienopyrimidine compounds on mouse bone marrow transduced with MLL-AF9 and MLL-ENL.

[5] = test system: mouse bone marrow transduced with MLL-AF9; assay: MTT viability assay, transduced mouse bone marrow; format: cell-based
Source text: as §1

[6] = test system: non-MLL leukemia cell lines (Kasumi-1, ME-1); assay: MTT viability assay in non-MLL leukemia cell lines; format: cell-based, human; conditions: Kasumi-1 (AML1-ETO), ME-1 (CBFβ-SMMHC)
[7] = test system: Hoxa9 and Meis1 expression; assay: qRT-PCR of MLL downstream targets in THP-1 cells
Hep-G2 (liver) cell line = assay: MTT viability assay, liver cell line
MV4;11 cells (MLL-AF4) = assay: Annexin V/PI staining flow cytometry
Hoxa9 promoter = assay: Luciferase reporter assay in HEK293 cells transfected with MLL-AF9
menin-MLL interaction [8] = biological target: T1, menin-MLL interaction; assay: HTRF (TR-FRET) assay, His-tagged menin and biotinylated MLL peptide; format: binding; conditions: Table 3
HK-2 (kidney) cell line = assay: MTT viability assay, kidney cell line
menin-MLL interaction [9] = biological target: T1, menin-MLL interaction; assay: Fluorescence polarization (FP) competition assay with fluorescein-labeled MLL peptide; format: binding;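 note: Read-out is fluorescence anisotropy of fluorescein-labeled MLL peptide bound to menin, inhibitors displace the peptide and lower anisotropy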
THP-1 cells (MLL-AF9) = assay: Annexin V/PI staining flow cytometry
[10] = Solubility (stated in words); format: physicochemical; conditions: relative to Compound 1, in words
[11] = test system: human leukemia cell lines with MLL translocations (MV4;11, ML-2, KOPN-8, Karpas 45); assay: ATP-based luminescence cell viability assay in MLL leukemia cell lines; conditions: range over MLL leukemia cell lines

T1 sequence (O00255 whole entry): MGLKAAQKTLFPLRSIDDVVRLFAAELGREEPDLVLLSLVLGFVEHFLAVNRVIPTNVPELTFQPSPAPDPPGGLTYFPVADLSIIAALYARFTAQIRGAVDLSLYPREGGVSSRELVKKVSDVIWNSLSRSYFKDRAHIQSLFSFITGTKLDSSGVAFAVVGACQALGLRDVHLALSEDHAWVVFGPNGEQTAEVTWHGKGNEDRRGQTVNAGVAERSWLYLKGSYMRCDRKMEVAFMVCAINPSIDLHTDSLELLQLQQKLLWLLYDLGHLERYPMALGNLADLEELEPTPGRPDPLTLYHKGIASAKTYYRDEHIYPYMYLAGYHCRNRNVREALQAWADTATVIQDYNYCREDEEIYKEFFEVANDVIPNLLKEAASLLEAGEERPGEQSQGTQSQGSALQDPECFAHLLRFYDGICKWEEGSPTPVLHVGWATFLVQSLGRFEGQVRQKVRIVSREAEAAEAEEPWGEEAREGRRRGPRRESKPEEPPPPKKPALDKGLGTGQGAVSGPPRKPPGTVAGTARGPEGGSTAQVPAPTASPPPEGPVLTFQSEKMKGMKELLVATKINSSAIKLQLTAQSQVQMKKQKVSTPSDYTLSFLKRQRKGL

SMILES: CCCc1cc2c(N3CCN(C4=NCC(C)(C)S4)CC3)ncnc2s1 [Compound 70]
inhibition of the menin-MLL interaction in cells (co-IP) (menin-MLL interaction [1]): effectively inhibit
inhibition of cell growth [2]: no significant inhibition of cell growth
expression of CD11b on the cell surface (THP-1 leukemia cells): increased expression of CD11b
growth inhibition of MLL leukemia cells [3]: Very effective growth inhibition
inhibition of cell growth [4]: substantial inhibition of cell growth
inhibition of cell growth [5]: substantial inhibition of cell growth
effect on growth of non-MLL leukemia cell lines [6]: no effect on the cell growth
expression level of Hoxa9 and Meis1 [7]: Downregulation

inhibition of the menin-MLL interaction in cells (co-IP) (menin-MLL interaction [1]): effectively inhibit
IC50 (menin-MLL interaction [8]): 7 µM
IC50 (menin-MLL interaction [9]; Table 3, NA = no activity, read-out: IC50 in FP assay with FLSN-MLL): 13 µM
IC50 (menin-MLL interaction [9]; re-tested by FP and HTRF, read-out: IC50 for inhibition of the menin-MLL interaction): 13 µM
SMILES: CC(=O)N1c2ccccc2NC2=C(C(=O)CC(c3ccc(C(C)(C)C)cc3)C2)C1c1cccnc1 (centres unmarked) [Compound 32]
toxicity in viability assay (Hep-G2 (liver) cell line): no signs of substantial toxicity
apoptotic cells (MV4;11 cells (MLL-AF4); 25 μM): > 20%
dead cells (MV4;11 cells (MLL-AF4); 25 μM): > 20%
induction of apoptosis and cell death (MV4;11 cells (MLL-AF4); 25 μM and 50 μM, in words): substantial apoptosis and cell death
transactivation of the Hoxa9 promoter (Hoxa9 promoter): effectively inhibit; also recorded: dose dependent inhibition
toxicity in viability assay (HK-2 (kidney) cell line): no signs of substantial toxicity
expression of CD11b on the cell surface (THP-1 leukemia cells): increased expression of CD11b
induction of apoptosis and cell death (THP-1 cells (MLL-AF9); 25 μM and 50 μM, in words): substantial apoptosis and cell death
apoptotic cells (THP-1 cells (MLL-AF9); 50 μM): about 20%
dead cells (THP-1 cells (MLL-AF9); 50 μM): > 40%
growth inhibition of MLL leukemia cells [3]: substantial growth inhibition; also recorded: strongly inhibited growth

solubility [10]: improved solubility
GI50 [11]: 7 to 25 µM
SMILES: CCc1cc2c(N3CCN(c4nnc(CC)s4)CC3)ncnc2s1 [Compound 4]
toxicity in viability assay (Hep-G2 (liver) cell line): no substantial signs of toxicity
toxicity in viability assay (Hep-G2 (liver) cell line; listed as Compounds 4): no signs of substantial toxicity
toxicity in viability assay (HK-2 (kidney) cell line): no substantial signs of toxicity
toxicity in viability assay (HK-2 (kidney) cell line; listed as Compounds 4): no signs of substantial toxicity
